Tests used:
Format in all cases: physicochemical
[1] = Caking test (Experiment 1-4); parameters: key: “Caked”, (+): Sample clearly keeps the hemispherical shape of the bottom of the tube even when placed on the plate; “Slightly caked”, (±): Sample slightly but distinguishably shows the hemispherical shape of the bottom of the tube; “Not caked” (−): Sample does not keep the hemispherical shape of the bottom of the tube; details: 1 g in 14-ml polypropylene tube, 50° C., 24 hours, macroscopic observation
Method: The following experiment was performed to investigate the caking of respective Test samples 1 to 4: One gram aliquots of each of Test samples 1 to 4, prepared in Experiment 1-1, were separately filled into “FALCON TUBE 2059”, a product name of a 14-ml polypropylene cylindrical tube (1.7 cm in diameter, 10 cm in height) having a hemispherical bottom shape and a cap, commercialized by Becton, Dickinson and Company, New Jersey, USA. The tubes were uprightly set to a tube rack and allowed to stand for 24 hours, after the tube rack was placed in “IC-410”, a product name of an incubator commercialized Advantec Toyo Kaisha, Ltd., Tokyo, Japan, controlled at 50° C. After the incubation, the tubes were taken out from the incubator, followed by removing each cap, taking out each test sample from each tube to place it on a black-plastic-plane plate by turning the tubes upside down slowly, and macroscopically observing the conditions of the resulting test samples.

[2] = Storage stability test (Experiment 3-2); parameters: key: “Caked” (+), clump(s) is/are detected in a test sample and the flowability of the test sample has lowered in comparison with that at the initiation of the test; “Not caked” (−), no clump is detected in a test sample and the flowability of the test sample has not been changed in comparison with that at the initiation of the test; details: 10 kg in open polyethylene-double-bag in uncapped steel can, 45 days; flowability and caked state
Description: To confirm that the caking test conducted in Experiment 1-4, etc., is a proper test for evaluating the caking of a particulate composition containing anhydrous crystalline ascorbic acid 2-glucoside when actually stored, Test sample 1 obtained in Experiment 1-1, Test samples 10 to 15 obtained in Experiment 3-1, and Test sample 16 were subjected to a storage stability test which was designed by taking account of conditions, environment, and period of time for actual storage of a particulate composition containing anhydrous crystalline ascorbic acid 2-glucoside.
Ten kilogram aliquots of any of Test samples 1 and 10 to 16 were respectively weighed and placed in a polyethylene-double-bag (800 mm by 600 mm) for each test sample. Then, each bag was placed in a 18-liter steel can in such a manner of allowing the opening part of each bag to open and stand upright without closing the opening part, allowing the bags to stand without capping the steel cans, and storing for 45 days in a room away from a relatively high temperature and humidity. After 45 days storage, each polyethylene-double-bag enclosing any of the test samples was taken out from the cans, and the samples were taken out from the bags and placed on a black-plastic-plane-plate for macroscopic observation of their flowabilities and caked states.
The test samples were judged about their caking by the following criteria: “Caked” (+), clump(s) is/are detected in a test sample and the flowability of the test sample has lowered in comparison with that at the initiation of the test; and “Not caked” (−), no clump is detected in a test sample and the flowability of the test sample has not been changed in comparison with that at the initiation of the test. The storage form of each test sample in the storage stability test is the same as that of a quasi-drug-grade powder that is commercially distributed and stored, except for not closing the opening part of the bag with a rubber band, not putting in any desiccant, and being stored in a steel can without closing it with a lid. The above three differences were of those, which had been set as a storage environment for a storage test that was slightly harder than an actual storage environment, to expedite the test results. The results are in Table 3 in parallel.

[3] = Solubility in hydrophilic solvent, 30% 1,3-butylene glycol (Experiment 6); details: same test as in Experiment 6
Description: Any one of the above test samples and the particulate compositions of Examples 1 to 4 was weighed 0.25 g and placed in “FALCON TUBE 2059”, a product name of a 14-ml polypropylene cylindrical tube having a hemispherical bottom shape and a cap, commercialized by Becton, Dickinson and Company, New Jersey, USA. […]

O=C1O[C@H]([C@@H](O)CO)C(O)=C1O[C@H]1O[C@H](CO)[C@@H](O)[C@H](O)[C@H]1O [Test sample 3, 2-O-α-D-glucosyl-L-ascorbic acid]
Caking [1]: +

O=C1O[C@H]([C@@H](O)CO)C(O)=C1O[C@H]1O[C@H](CO)[C@@H](O)[C@H](O)[C@H]1O [Test sample 8, 2-O-α-D-glucosyl-L-ascorbic acid]
Caking [1]: ±

O=C1O[C@H]([C@@H](O)CO)C(O)=C1O[C@H]1O[C@H](CO)[C@@H](O)[C@H](O)[C@H]1O [Test sample 11, 2-O-α-D-glucosyl-L-ascorbic acid]
Storage stability [2]: +
Caking [1]: ±

O=C1O[C@H]([C@@H](O)CO)C(O)=C1O[C@H]1O[C@H](CO)[C@@H](O)[C@H](O)[C@H]1O [Example 5, 2-O-α-D-glucosyl-L-ascorbic acid]
Solubility in 1,3-butylene glycol (judgement in words) [3]: Passable solubility
Caking [1]: −

O=C1O[C@H]([C@@H](O)CO)C(O)=C1O[C@H]1O[C@H](CO)[C@@H](O)[C@H](O)[C@H]1O [Test sample 2, 2-O-α-D-glucosyl-L-ascorbic acid]
Caking [1]: +

O=C1O[C@H]([C@@H](O)CO)C(O)=C1O[C@H]1O[C@H](CO)[C@@H](O)[C@H](O)[C@H]1O [Test sample 6, 2-O-α-D-glucosyl-L-ascorbic acid]
Caking [1]: −

O=C1O[C@H]([C@@H](O)CO)C(O)=C1O[C@H]1O[C@H](CO)[C@@H](O)[C@H](O)[C@H]1O [Example 4, 2-O-α-D-glucosyl-L-ascorbic acid]
Storage stability [2]: −
Caking [1]: −

O=C1O[C@H]([C@@H](O)CO)C(O)=C1O[C@H]1O[C@H](CO)[C@@H](O)[C@H](O)[C@H]1O [Comparative Example 2, 2-O-α-D-glucosyl-L-ascorbic acid]
Solubility in 1,3-butylene glycol (judgement in words) [3]: Passable solubility
Caking [1]: +

O=C1O[C@H]([C@@H](O)CO)C(O)=C1O[C@H]1O[C@H](CO)[C@@H](O)[C@H](O)[C@H]1O [Example for Reference 1, 2-O-α-D-glucosyl-L-ascorbic acid]
Solubility in 1,3-butylene glycol (judgement in words) [3]: Impassable solubility
Storage stability [2]: −
Caking [1]: −

O=C1O[C@H]([C@@H](O)CO)C(O)=C1O[C@H]1O[C@H](CO)[C@@H](O)[C@H](O)[C@H]1O [Example 1, 2-O-α-D-glucosyl-L-ascorbic acid]
Storage stability [2]: −
Caking [1]: −

O=C1O[C@H]([C@@H](O)CO)C(O)=C1O[C@H]1O[C@H](CO)[C@@H](O)[C@H](O)[C@H]1O [Test sample 5, 2-O-α-D-glucosyl-L-ascorbic acid]
Caking [1]: −

O=C1O[C@H]([C@@H](O)CO)C(O)=C1O[C@H]1O[C@H](CO)[C@@H](O)[C@H](O)[C@H]1O [Test sample 10, 2-O-α-D-glucosyl-L-ascorbic acid]
Storage stability [2]: +
Caking [1]: +

O=C1O[C@H]([C@@H](O)CO)C(O)=C1O[C@H]1O[C@H](CO)[C@@H](O)[C@H](O)[C@H]1O [Example 3, 2-O-α-D-glucosyl-L-ascorbic acid]
Storage stability [2]: −
Caking [1]: −

O=C1O[C@H]([C@@H](O)CO)C(O)=C1O[C@H]1O[C@H](CO)[C@@H](O)[C@H](O)[C@H]1O [Test sample 1, 2-O-α-D-glucosyl-L-ascorbic acid]
Storage stability [2]: −
Caking [1]: −

O=C1O[C@H]([C@@H](O)CO)C(O)=C1O[C@H]1O[C@H](CO)[C@@H](O)[C@H](O)[C@H]1O [Test sample 20, 2-O-α-D-glucosyl-L-ascorbic acid]
Storage stability [2]: +
Caking [1]: +

O=C1O[C@H]([C@@H](O)CO)C(O)=C1O[C@H]1O[C@H](CO)[C@@H](O)[C@H](O)[C@H]1O [Example 8, 2-O-α-D-glucosyl-L-ascorbic acid]
Solubility in 1,3-butylene glycol (judgement in words) [3]: Passable solubility
Caking [1]: − and ±

O=C1O[C@H]([C@@H](O)CO)C(O)=C1O[C@H]1O[C@H](CO)[C@@H](O)[C@H](O)[C@H]1O [Comparative Example 1, 2-O-α-D-glucosyl-L-ascorbic acid]
Solubility in 1,3-butylene glycol (judgement in words) [3]: Passable solubility
Caking [1]: +

O=C1O[C@H]([C@@H](O)CO)C(O)=C1O[C@H]1O[C@H](CO)[C@@H](O)[C@H](O)[C@H]1O [Test sample 28, 2-O-α-D-glucosyl-L-ascorbic acid]
Caking [1]: +

O=C1O[C@H]([C@@H](O)CO)C(O)=C1O[C@H]1O[C@H](CO)[C@@H](O)[C@H](O)[C@H]1O [Test sample 7, 2-O-α-D-glucosyl-L-ascorbic acid]
Caking [1]: −

O=C1O[C@H]([C@@H](O)CO)C(O)=C1O[C@H]1O[C@H](CO)[C@@H](O)[C@H](O)[C@H]1O [Test sample 9, 2-O-α-D-glucosyl-L-ascorbic acid]
Caking [1]: +

O=C1O[C@H]([C@@H](O)CO)C(O)=C1O[C@H]1O[C@H](CO)[C@@H](O)[C@H](O)[C@H]1O [Example 7, 2-O-α-D-glucosyl-L-ascorbic acid]
Solubility in 1,3-butylene glycol (judgement in words) [3]: Passable solubility
Caking [1]: −

O=C1O[C@H]([C@@H](O)CO)C(O)=C1O[C@H]1O[C@H](CO)[C@@H](O)[C@H](O)[C@H]1O [Example 2, 2-O-α-D-glucosyl-L-ascorbic acid]
Storage stability [2]: −
Caking [1]: −

O=C1O[C@H]([C@@H](O)CO)C(O)=C1O[C@H]1O[C@H](CO)[C@@H](O)[C@H](O)[C@H]1O [Test sample 4, 2-O-α-D-glucosyl-L-ascorbic acid]
Caking [1]: −

O=C1O[C@H]([C@@H](O)CO)C(O)=C1O[C@H]1O[C@H](CO)[C@@H](O)[C@H](O)[C@H]1O [Test sample 21, 2-O-α-D-glucosyl-L-ascorbic acid]
Storage stability [2]: −
Caking [1]: −

O=C1O[C@H]([C@@H](O)CO)C(O)=C1O[C@H]1O[C@H](CO)[C@@H](O)[C@H](O)[C@H]1O [Test sample 19, 2-O-α-D-glucosyl-L-ascorbic acid]
Storage stability [2]: −
Caking [1]: −

O=C1O[C@H]([C@@H](O)CO)C(O)=C1O[C@H]1O[C@H](CO)[C@@H](O)[C@H](O)[C@H]1O [Test sample 22, 2-O-α-D-glucosyl-L-ascorbic acid]
Storage stability [2]: −
Caking [1]: −

O=C1O[C@H]([C@@H](O)CO)C(O)=C1O[C@H]1O[C@H](CO)[C@@H](O)[C@H](O)[C@H]1O [Example 6, 2-O-α-D-glucosyl-L-ascorbic acid]
Solubility in 1,3-butylene glycol (judgement in words) [3]: Passable solubility
Caking [1]: −

Reference: patent US9265781B2, “Process for producing a particulate composition comprising anhydrous crystalline 2-O-alpha-D-glucosyl-L-ascorbic acid” (HAYASHIBARA CO., LTD., priority 2009, dated 2016)
